In this assay the target is PAS domain-containing serine/threonine-protein kinase (Homo sapiens, UniProt Q96RG2). Description: Inhibition of human recombinant PASK using Ulight-peptide substrate incubated for 2 hrs by TR-FRET assay. (Time-resolved FRET reads energy transfer from a long-lived donor to a nearby acceptor.)
PAS domain-containing serine/threonine-protein kinase, sequence (Q96RG2 whole entry, the tested form may be a part): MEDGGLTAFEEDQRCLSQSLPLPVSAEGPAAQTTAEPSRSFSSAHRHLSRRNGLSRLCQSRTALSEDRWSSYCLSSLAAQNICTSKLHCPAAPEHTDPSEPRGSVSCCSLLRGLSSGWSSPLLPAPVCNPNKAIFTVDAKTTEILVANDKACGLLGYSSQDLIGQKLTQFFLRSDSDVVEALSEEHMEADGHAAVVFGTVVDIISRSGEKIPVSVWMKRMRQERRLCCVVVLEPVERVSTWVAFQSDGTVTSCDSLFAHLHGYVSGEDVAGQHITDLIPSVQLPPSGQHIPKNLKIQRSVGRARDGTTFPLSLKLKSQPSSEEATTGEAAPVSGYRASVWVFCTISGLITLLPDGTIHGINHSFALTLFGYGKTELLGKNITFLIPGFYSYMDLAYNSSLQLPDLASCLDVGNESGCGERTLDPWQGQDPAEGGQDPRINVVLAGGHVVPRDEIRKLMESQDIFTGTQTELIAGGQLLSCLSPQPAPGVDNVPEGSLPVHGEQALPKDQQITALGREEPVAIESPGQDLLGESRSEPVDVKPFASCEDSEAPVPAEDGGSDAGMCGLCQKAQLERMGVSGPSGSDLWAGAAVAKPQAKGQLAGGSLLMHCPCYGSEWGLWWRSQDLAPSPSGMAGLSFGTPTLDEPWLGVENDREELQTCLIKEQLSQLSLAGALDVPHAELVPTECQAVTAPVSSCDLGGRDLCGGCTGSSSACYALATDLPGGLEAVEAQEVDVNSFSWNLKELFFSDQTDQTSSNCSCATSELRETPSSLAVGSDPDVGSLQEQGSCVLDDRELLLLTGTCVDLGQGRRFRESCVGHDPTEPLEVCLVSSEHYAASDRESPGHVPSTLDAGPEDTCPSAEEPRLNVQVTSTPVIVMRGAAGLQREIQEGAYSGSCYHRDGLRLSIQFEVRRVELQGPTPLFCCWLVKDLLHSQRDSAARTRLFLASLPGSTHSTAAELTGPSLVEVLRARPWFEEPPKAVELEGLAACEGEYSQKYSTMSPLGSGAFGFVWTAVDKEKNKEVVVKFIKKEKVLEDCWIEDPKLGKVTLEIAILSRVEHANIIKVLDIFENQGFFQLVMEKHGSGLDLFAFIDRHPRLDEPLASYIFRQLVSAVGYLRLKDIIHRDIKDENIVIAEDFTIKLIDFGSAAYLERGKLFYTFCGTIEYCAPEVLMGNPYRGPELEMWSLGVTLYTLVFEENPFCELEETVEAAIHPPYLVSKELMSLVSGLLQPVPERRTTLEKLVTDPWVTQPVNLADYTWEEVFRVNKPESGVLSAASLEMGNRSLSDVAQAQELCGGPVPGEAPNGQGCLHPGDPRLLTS

Take `CCn1ncc2cc(-c3cc(=O)n4nc(NC(C)=O)c(-c5ccccn5)c4[nH]3)ccc21`: the half-inhibitory concentration (IC50) is not above 10 µM. `Cc1ccc(-c2cc(=O)n3ncc(-c4ccccn4)c3[nH]2)cc1`: the 50% inhibitory concentration (IC50) is not above 10 µM.

Regarding `Cc1n[nH]c2ccc(-c3cc(=O)n4ncc(-c5ccccn5)c4[nH]3)cc12`, the IC50 was not above 10 µM. As for `O=c1cc(-c2ccc3c(c2)OCO3)[nH]c2c(Cc3ccccn3)cnn12`, the concentration for half-maximal inhibition (IC50) was not above 10 µM.

Take `CCCNC(=O)c1c(O)nn2c(=O)cc(-c3ccc4[nH]nnc4c3)[nH]c12`: the IC50 was not above 10 µM. The value for `Nc1nn2c(=O)cc(-c3cc4ccccc4o3)[nH]c2c1-c1ccccn1` was not above 10 µM; that for `Nc1nn2c(c1-c1ccccn1)CC(c1ccc3c(c1)OC(F)(F)O3)=CC2=O` was not above 10 µM. Regarding `CCc1nn2c(=O)cc(-c3ccc4[nH]nnc4c3)[nH]c2c1-c1ccccc1`, the IC50 is not above 10 µM. The value for `Cc1cc2[nH]nnc2cc1-c1cc(=O)n2ncc(-c3ccccn3)c2[nH]1` was not above 10 µM; that for `Cn1ncc2cc(-c3cc(=O)n4ncc(-c5ccccn5)c4[nH]3)ccc21` was not above 10 µM. `CC(C)C(=O)Nc1nn2c(=O)cc(-c3ccc4c(c3)OCO4)[nH]c2c1-c1ccccn1`: the IC50 is not above 10 µM.

As for `Cn1ncc2cc(-c3cc(=O)n4nc(N)c(-c5ccccn5)c4[nH]3)ccc21`, the IC50 was not above 10 µM. The value for `O=c1cc(-c2ccc3c(c2)OCCO3)[nH]c2c(-c3ccc(Br)cc3)cnn12` was not above 10 µM; that for `O=c1cc(-c2ccccc2)[nH]c2c(-c3ccc(O)nc3)cnn12` was not above 10 µM.

With `COc1c(-c2cc(=O)n3nc(O)c(-c4ccccn4)c3[nH]2)ccc2[nH]nnc12`, the IC50 was not above 10 µM.

As to `Cc1c(-c2cc(=O)n3nc(N)c(-c4ccccn4)c3[nH]2)ccc2[nH]nnc12`, the IC50 is not above 10 µM. Take `COc1ccc(-c2c(C)nn3c(=O)cc(-c4ccc5ncccc5c4)[nH]c23)cc1`: the IC50 was not above 10 µM.

In the case of `COc1c(-c2cc(=O)n3nc(C)c(-c4ccccn4)c3[nH]2)ccc2[nH]nnc12`, the half-inhibitory concentration (IC50) is not above 10 µM. The value for `O=c1cc(-c2ccc(F)cc2F)[nH]c2c(-c3ccccn3)cnn12` was not above 10 µM; that for `CCC(=O)Nc1nn2c(=O)cc(-c3ccc4nn[nH]c4c3)[nH]c2c1-c1ccccn1` was not above 10 µM; that for `O=c1cc(-c2ccc3c(c2)OCCO3)[nH]c2c(-c3ccc(F)cc3)cnn12` was not above 10 µM.

Regarding `Cc1n[nH]c2ccc(-c3cc(=O)n4nc(N)c(-c5ccccn5)c4[nH]3)cc12`, the IC50 was not above 10 µM. `Nc1nn2c(=O)cc(-c3ccc(C(F)(F)F)cc3)[nH]c2c1-c1ccccn1`: the IC50 was not above 10 µM. For the molecule `Cc1nn2c(=O)cc(-c3ccc4ncccc4c3)[nH]c2c1-c1ccc(F)cc1`, the half-inhibitory concentration (IC50) was not above 10 µM. With `Nc1nn2c(=O)cc(-c3ccc4occc4c3)[nH]c2c1-c1ccccn1`, the IC50 is not above 10 µM. The value for `O=c1cc(-c2ccc(Cl)cc2Cl)[nH]c2c(-c3ccccn3)cnn12` was not above 10 µM. As for `O=c1cc(-c2ccccc2)[nH]c2c(-c3cccnc3)c(O)nn12`, the figure is not above 10 µM; as for `O=c1cc(-c2ccc3[nH]nnc3c2)[nH]c2c(-c3ccccn3)cnn12`, not above 10 µM.

As to `O=c1cc(-c2ccc3c(c2)OCCO3)[nH]c2c(-c3cccc(Cl)c3)cnn12`, the IC50 was not above 10 µM.

As for `COc1cc(Cl)ccc1-c1cc(=O)n2ncc(-c3ccccn3)c2[nH]1`, the IC50 is not above 10 µM. The value for `COc1ccc(-c2cnn3c(=O)cc(-c4ccccc4)[nH]c23)cn1` was not above 10 µM.

On to `CCCNC(=O)c1c(N)nn2c(=O)cc(-c3ccc4c(c3)OCCO4)[nH]c12`, for which the IC50 was not above 10 µM. As to `Nc1nn2c(=O)cc(-c3ccc(F)cc3F)[nH]c2c1-c1ccccn1`, the half-maximal inhibitory concentration (IC50) was not above 10 µM. The value for `O=C(c1cnn2c(=O)cc(-c3ccc4c(c3)OCCO4)[nH]c12)N1CCCC1` was not above 10 µM; that for `Cn1nnc2cc(-c3cc(=O)n4nc(N)c(-c5ccccn5)c4[nH]3)ccc21` was not above 10 µM; that for `O=c1cc(-c2ccc(Cl)cc2F)[nH]c2c(-c3ccccn3)cnn12` was not above 10 µM. The value for `CCc1nn2c(=O)cc(-c3ccc4[nH]ncc4c3)[nH]c2c1-c1ccccn1` was not above 10 µM; that for `O=c1cc(-c2ccc3c(c2)OCCO3)[nH]c2c(-c3cccnc3)c(O)nn12` was not above 10 µM. As for `Cc1nn2c(=O)cc(-c3ccc4[nH]nnc4c3)[nH]c2c1-c1ccc(Cl)cc1`, the figure is not above 10 µM; as for `Cc1nn2c(=O)cc(-c3ccc4[nH]nnc4c3)[nH]c2c1-c1ccccn1`, not above 10 µM. With `CC(=O)Nc1nn2c(=O)cc(-c3ccc4[nH]nnc4c3)[nH]c2c1-c1ccccn1`, the half-maximal inhibitory concentration (IC50) is not above 10 µM. Take `CNC(=O)Oc1ccc(-c2cc(=O)n3ncc(-c4ccccn4)c3[nH]2)cc1`: the concentration for half-maximal inhibition (IC50) was not above 10 µM. The value for `Cc1cc2cc(-c3cc(=O)n4ncc(-c5ccccn5)c4[nH]3)ccc2o1` was not above 10 µM; that for `Cc1c(-c2cc(=O)n3nc(N)c(-c4ccccn4)c3[nH]2)ccc2c1OCO2` was not above 10 µM. The value for `Nc1nn2c(=O)cc(-c3ccc4[nH]nnc4c3)[nH]c2c1Cc1ccccc1` was not above 10 µM; that for `CCc1nn2c(=O)cc(-c3ccc(Cl)cc3)[nH]c2c1-c1ccccn1` was not above 10 µM. As for `O=c1cc(-c2ccc(C(F)(F)F)cc2)[nH]c2c(-c3ccccn3)cnn12`, the figure is not above 10 µM; as for `COc1nn2c(=O)cc(-c3ccc(Cl)cc3)[nH]c2c1C#N`, not above 10 µM; as for `N#Cc1c(O)nn2c(=O)cc(-c3ccc(Cl)cc3)[nH]c12`, not above 10 µM. Take `O=C(O)c1cnn2c(=O)cc(-c3ccc4c(c3)OCCO4)[nH]c12`: the half-inhibitory concentration (IC50) is not above 10 µM. `Cc1c(-c2cc(=O)n3ncc(-c4ccccn4)c3[nH]2)ccc2c1OCO2`: the half-maximal inhibitory concentration (IC50) was not above 10 µM. On to `Nc1nn2c(=O)cc(-c3ccc(Cl)c(Cl)c3)[nH]c2c1-c1ccccn1`, for which the half-inhibitory concentration (IC50) is not above 10 µM.

Take `Cc1c(-c2cc(=O)n3nc(O)c(-c4ccccn4)c3[nH]2)ccc2[nH]nnc12`: the concentration for half-maximal inhibition (IC50) was not above 10 µM. As for `COc1c(-c2cc(=O)n3nc(N)c(-c4ccccn4)c3[nH]2)ccc2[nH]nnc12`, the figure is not above 10 µM. As to `O=c1cc(-c2ccc3[nH]nnc3c2)[nH]c2c(Cc3ccccc3)c(O)nn12`, the IC50 was not above 10 µM. For `Cc1c(-c2cc(=O)n3nc(O)c(-c4ccccn4)c3[nH]2)ccc2c1OCO2`, the IC50 was not above 10 µM. As for `Cc1nn2c(=O)cc(-c3ccc4c(c3OC(C)C)OCO4)[nH]c2c1-c1ccccn1`, the figure is not above 10 µM.

For the molecule `O=c1cc(-c2ccc(-c3nnco3)cc2)[nH]c2c(-c3ccccn3)cnn12`, the IC50 is not above 10 µM. As for `O=c1cc(-c2ccc(Cl)cc2)[nH]c2c(Cc3ccccc3)cnn12`, the figure is not above 10 µM; as for `COc1ccc(-c2c(C)nn3c(=O)cc(-c4ccc5c(c4)OCCO5)[nH]c23)cc1`, not above 10 µM. Consider `CCCNC(=O)c1c(N)nn2c(=O)cc(-c3ccc4c(c3)OCO4)[nH]c12`, for which the 50% inhibitory concentration (IC50) was not above 10 µM. Turning to `Cc1cc2[nH]nnc2cc1-c1cc(=O)n2nc(N)c(-c3ccccn3)c2[nH]1`, the IC50 is not above 10 µM. For the molecule `Cc1cc2cc(-c3cc(=O)n4nc(N)c(-c5ccccn5)c4[nH]3)ccc2o1`, the 50% inhibitory concentration (IC50) was not above 10 µM. As for `Cc1nn2c(=O)cc(-c3ccc4[nH]ccc4c3)[nH]c2c1-c1ccccc1`, the figure is not above 10 µM; as for `Cc1nn2c(=O)cc(-c3ccc4[nH]nnc4c3)[nH]c2c1Cc1ccccc1`, not above 10 µM; as for `CCC(=O)Nc1nn2c(=O)cc(-c3ccc4c(c3)OCO4)[nH]c2c1-c1ccccn1`, not above 10 µM. Consider `CNC(=O)Oc1ccc(-c2cc(=O)n3nc(C)c(-c4ccccn4)c3[nH]2)cc1`, for which the half-inhibitory concentration (IC50) is not above 10 µM. With `COc1cc2[nH]nnc2cc1-c1cc(=O)n2nc(O)c(-c3ccccn3)c2[nH]1`, the IC50 is not above 10 µM. As for `O=c1cc(-c2ccc3[nH]nnc3c2)[nH]c2c(Cc3ccccc3)cnn12`, the IC50 is not above 10 µM. For the molecule `Cc1nn2c(=O)cc(-c3ccc(O)cc3)[nH]c2c1-c1ccccc1`, the 50% inhibitory concentration (IC50) is not above 10 µM. As for `Cc1nn2c(=O)cc(-c3ccc4[nH]nnc4c3)[nH]c2c1-c1ccccc1`, the figure is not above 10 µM; as for `Cc1coc2ccc(-c3cc(=O)n4nc(N)c(-c5ccccn5)c4[nH]3)cc12`, not above 10 µM; as for `O=c1cc(-c2ccccc2)[nH]c2c(-c3ccc(N4CCCCC4)nc3)cnn12`, not below 10 µM. For the molecule `CC(=O)Nc1nn2c(=O)cc(-c3ccc4[nH]ncc4c3)[nH]c2c1-c1ccccn1`, the half-maximal inhibitory concentration (IC50) was not above 10 µM. Take `O=c1cc(-c2ccc3c(c2)OCCO3)[nH]c2c(-c3ccc(N4CCOCC4)nc3)cnn12`: the IC50 was not above 10 µM. Turning to `COc1cc(OC)cc(-c2cc(=O)n3ncc(-c4ccccn4)c3[nH]2)c1`, the IC50 was not above 10 µM. `COc1ccc(-c2cnn3c(=O)cc(-c4ccc5c(c4)OCCO5)[nH]c23)cc1`: the IC50 was not above 10 µM. In the case of `O=c1cc(-c2ccc3[nH]nnc3c2)[nH]c2c(-c3ccccc3)c(O)nn12`, the IC50 was not above 10 µM. The value for `Cc1nn2c(=O)cc(-c3ccc4c(c3C)OCO4)[nH]c2c1-c1ccccn1` was not above 10 µM. The value for `CCc1nn2c(=O)cc(-c3ccc4c(cnn4C)c3)[nH]c2c1-c1ccccn1` was not above 10 µM; that for `CCCc1cnn2c(=O)cc(-c3ccc4c(c3)OCO4)[nH]c12` was not above 10 µM. The value for `CS(=O)(=O)c1ccc(-c2cc(=O)n3ncc(-c4ccccn4)c3[nH]2)cc1` was not above 10 µM; that for `Cc1nn2c(=O)cc(-c3ccc4[nH]nnc4c3C)[nH]c2c1-c1ccccn1` was not above 10 µM; that for `O=c1cc(-c2cccc(F)c2)[nH]c2c(-c3ccccn3)cnn12` was not above 10 µM. For the molecule `Nc1nn2c(=O)cc(-c3cccc(F)c3)[nH]c2c1-c1ccccn1`, the IC50 was not above 10 µM.

For the molecule `Cn1nnc2cc(-c3cc(=O)n4ncc(-c5ccccn5)c4[nH]3)ccc21`, the half-inhibitory concentration (IC50) is not above 10 µM.

In the case of `COc1c(-c2cc(=O)n3ncc(-c4ccccn4)c3[nH]2)ccc2c1OCO2`, the IC50 is not above 10 µM. For `CC(C)Oc1c(-c2cc(=O)n3ncc(-c4ccccn4)c3[nH]2)ccc2c1OCO2`, the IC50 was not above 10 µM. As to `Cc1cc2[nH]nnc2cc1-c1cc(=O)n2nc(O)c(-c3ccccn3)c2[nH]1`, the concentration for half-maximal inhibition (IC50) was not above 10 µM. As for `COc1nn2c(=O)cc(-c3ccc4c(c3)OCO4)[nH]c2c1-c1ccccn1`, the figure is not above 10 µM.

For orientation: IC50 means the concentration that inhibits the measured activity by half.

(Values after ChEMBL document CHEMBL3714729, “Heterocyclic compounds for the inhibition of pask” (2012).)
